In patent publication US9656949B2, “Substituted carboxylic acid derivatives as aggrecanase inhibitors for the treatment of osteoarthritis” (MERCK PATENT GMBH, priority 2013, dated 2017):
Values after ≈ are worked out from the molar mass of the structure shown. Starred links: 1 amine or outer side, 2 acyl side, 3 side chain; linkers in the order of their positions; H or OH if unused. Non-standard residues stand in square brackets, D forms with d. Residues, ends and D or L forms follow the SMILES beside them. *: point of attachment. X1 = N[C@@H](CC(=O)[*:2])[C@H](Cc1ccccc1)N[*:1]; Isovaleryl = CC(C)CC(=O)*

Legend:
[1] = biological target: T1, human recombinant AdamTS-5 (Homo sapiens, UniProt Q9UNA0); test: Biochemical activity testing of ADAMTS-5: aggrecan peptide cleavage assay (AlphaScreen); conditions: 4.5 nM human recombinant AdamTS-5, biotinylated 43mer aggrecan peptide, 180 min at 37° C.; read-out: IC50 [ADAM-NTS5]M
T1 construct: purchased R&D systems, Wiesbaden, Germany
T1 sequence (Q9UNA0 262-930): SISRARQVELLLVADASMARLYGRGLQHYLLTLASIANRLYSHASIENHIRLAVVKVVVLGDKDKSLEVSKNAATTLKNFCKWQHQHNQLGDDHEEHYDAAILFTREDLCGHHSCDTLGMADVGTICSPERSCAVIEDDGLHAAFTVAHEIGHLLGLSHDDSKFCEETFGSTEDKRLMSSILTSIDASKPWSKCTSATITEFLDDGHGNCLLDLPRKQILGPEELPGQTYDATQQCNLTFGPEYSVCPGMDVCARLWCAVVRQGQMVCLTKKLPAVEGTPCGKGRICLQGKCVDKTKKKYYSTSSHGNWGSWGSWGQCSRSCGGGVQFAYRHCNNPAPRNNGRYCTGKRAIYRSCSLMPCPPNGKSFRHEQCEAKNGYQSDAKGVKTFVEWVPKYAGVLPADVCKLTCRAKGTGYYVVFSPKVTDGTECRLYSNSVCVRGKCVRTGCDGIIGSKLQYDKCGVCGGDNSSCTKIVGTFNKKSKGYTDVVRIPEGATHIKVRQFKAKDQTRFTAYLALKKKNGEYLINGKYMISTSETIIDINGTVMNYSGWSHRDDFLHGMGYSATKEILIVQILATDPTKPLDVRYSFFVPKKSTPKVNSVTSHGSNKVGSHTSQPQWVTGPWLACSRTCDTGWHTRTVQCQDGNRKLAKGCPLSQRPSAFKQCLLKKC
Protocol: ADAMTS-5 is a metallo protease with glutamyl-endoprotease activity and cleaves aggrecan core protein at E373-A374 in the interglobular domain. To fully analyse the inhibitory potential of compounds on AdamTS-5 activity an Alphascreen® assay with a biotinylated 43mer aggrecan oligopeptide as substrate was performed. Cleavage by ADAMTS-5 caused production of a neoepitop N-terminus ARGS at the C-terminal fragment. The detection of this product is performed with streptavidin-AlphaScreen® donor beads binding to the biotin label and an anti-neoepitop (“ARGSV”) antibody that anchors anti-mouse IgG-coated AlphaLisa® acceptor beads to the other end of the generated fragment. Thereby, donor and acceptor beads get in proximity and a luminescence Alphascreen® signal is generated via the release of singlet oxygen. The cleavage activity was detectable directly by the increase in Alphascreen® signal.
The aggrecan peptide cleavage assay was performed as 384 well AlphaScreen® (Perkin Elmer) assay format in Perkin Elmer 384 AlphaPlate (proxiplate) shallow well microtiter plates and was used for high throughput screen in a total assay volume of 10 μl. 4.5 nM human recombinant AdamTS-5 (R&D systems, Wiesbaden, Germany) and 30 nM biotinylated peptide […]-K(bio) (custom-made, Biosynthan, Berlin, Germany) as substrate were incubated in a total volume of 6 μl (100 mM Tris/HCl, 150 mM NaCl, 10 mM CaCl2, 0.05% Brij®-35, 1% DMSO, 0.084% BSA, pH 7.5) in the absence or presence of the test compound (10 dilution concentrations) for 180 min at 37° C. The reaction was stopped and the first detection step performed by the addition of 2 μl detection solution 1 (48 mM EDTA, 8 nM aggrecan antibody N-term neoepitope ARG, mouse monoclonal BC3 antibody (MDBioproducts, Egg, Switzerland), 100 μg/ml Streptavidin Alphascreen® donor beads (Perkin Elmer, Rodgau, Germany) in 100 mM Tris/HCl, 150 mM NaCl, 0.05% Brij®-35, 0.1% BSA, pH 7.5). After an one-hour incubation at 37° C. 2 μl of the second detection solution (25 μg/ml anti-mouse AlphaLisa® acceptor beads (Perkin Elmer, Rodgau, Germany) in 100 mM Tris/HCl, 150 mM NaCl, 0.05% Brij®-35, 0.1% BSA, pH 7.5 were added. The plates were incubated for […] in the dark.
The AlphaScreen signal was measured with an Envision multimode reader (Perkin Elmer LAS Germany GmbH) with the Alphascreen protocol from Perkin Elmer (laser mode) emission wavelength 570 nm. The full value used was the inhibitor-free reaction. For the zero value a pharmacological reference was used. The inhibitory values (IC50) for the compounds were determined using either the program Symyx Assay Explorer® or Condosseo® from GeneData.

[2] = test system: bovine cartilage explants; test: GAG-Assay (GAG release from bovine cartilage explants); type: cell-based; conditions: Bos taurus, GAG release into supernatant, unit inferred
Protocol: The assay is based on bovine cartilage explants from the metacarpal joint (MCP) with a diameter of 4 mm and a thickness of 1-2 mm. Explants are freshly harvested at the day of slaughter. Before the start of the experiment, explants are incubated in DMEM medium+10% serum+30 μg/ml ascorbic acid for 48 h (200 μl). The pre-incubation is performed to enlarge the assay window. Explants are incubated at 37° C. and 7.5% CO2. The number of replicates for all groups is n=4.
Induction of cartilage degradation is induced by treatment of the explants with IL-1 alpha (10 ng/ml) in serum-free medium for 5 days. As negative control, explants are left untreated in serum-free DMEM medium. This control is not part of the baseline calculation but an internal control for the degree of degradation which is strictly dependent on the IL1-alpha quality. IL-1 alpha induces the activity of proteases such as ADAMTS-5 and MMPs which in turn degrade the matrix. Degradation products of the matrix (GAG: glycosaminoglycan) can be measured in the supernatant. The level of GAG release induced by IL1-alpha is defined as the 0% effect level. […] This DRC is the basis for the IC50 calculation.
IL-1 alpha and the ADAMTS-5 inhibitors are incubated for 5 days, then GAG is measured in the supernatant. The explants are digested with papain to determine the amount of GAG in the explants.
In order to investigate the effect of potential cathepsin D inhibitors on cartilage degradation, a pH-induced model based on bovine explants is used. The pH of the medium in which the explants are cultivated is matched here to the pathophysiological pH of an arthritic knee. This pH is pH 5.5. […] The amount of GAGs liberated can be determined quantitatively with the aid of DMMB (dimethylmethylene blue hydrochloride). If sulfated GAGs are detected using dimethylmethylene blue hydrochloride, the decrease in the absorption at 633 nm is utilised. […] In order to determine the concentration, a calibration line is also recorded using chondroitin sulfate. […]

[3] = Solubility pH7.4; type: physicochemical; conditions: pH 7.4, aqueous buffer
[4] = test system: carrageenan-induced inflammation of rat knee joint; test: Investigation of the anti-hyperalgesic effect in animals (carrageenan injected intra-articularly into rat knee joint); type: in vivo; conditions: intra-articular administration 30 minutes before CAR
Protocol: In order to induce an inflammation reaction, a carrageenan solution (CAR, 1%, 50 μl) was injected intra-articularly on one side into a rat knee joint. The uninjected side was used for control purposes. Six animals per group were used. The […] was determined by means of a micrometer screw (medial-lateral on the knee joint), and the thermal hyperalgesia was determined by means of a directed infrared light source by the Hargreaves method (Hargreaves et al., 1988) on the sole of the foot. Since the site of inflammation (knee joint) is different from the site of measurement (paw sole), use is made here of the term secondary thermal hyperalgesia, the mechanism of which is of importance for the discovery of effective analge-sics.
Experimental description of thermal hyperalgesia (Hargreaves test): the experimental animal is placed in a plastic chamber on a quartz sheet. Before testing, the experimental animal is firstly given about 5-15 minutes time to familiarise itself with the environment. […] Light reflected by the paw is recorded as long as the experimental animal sits still. Withdrawal of the paw interrupts this reflection, after which the infrared light source is switched off and the time from switching on to switching off is recorded. […]

IC50 [1] [nM] | solubility [3] [µg/mL] | Compound | IC50 [2] [nM] | CAR-induced swelling ([4]; rat knee joint, TAC 10 μg/joint) | thermal hyperalgesia (Hargreaves test) ([4]; rat, difference in withdrawal times between inflamed and non-inflamed paw)
170 | 157 (≈ 303 µM) | CCC[C@@H](C[C@H](NC(=O)c1ccc(-c2ccccc2)cc1)C(=O)NC(C)(C)Cc1ccc(F)cc1)C(=O)O [Compound 7] | 1000 | – | –
170 | 838 (≈ 1610 µM) | COC[C@@H](C[C@H](NC(=O)c1ccc(-c2ccccc2)cc1)C(=O)NC(C)(C)Cc1ccc(F)cc1)C(=O)O [Compound 8] | 1200 | – | –

The remaining lines, values behind:

Compound | IC50 [1] [nM] | solubility [3] [µg/mL] | IC50 [2] [nM] | CAR-induced swelling ([4]; rat knee joint, TAC 10 μg/joint) | thermal hyperalgesia (Hargreaves test) ([4]; rat, difference in withdrawal times between inflamed and non-inflamed paw)
C[C@@H](C[C@H](NC(=O)c1ccc(-c2ccccc2)cc1)C(=O)NC(C)(C)Cc1ccc(F)cc1)C(=O)O [Compound 5, (2S,4S)-4-[(Biphenyl-4-carbonyl)-amino]-4-[2-(4-fluoro-phenyl)-1,1-dimethyl-ethylcarbamoyl]-2-methyl-butyric acid] | 85 | 677 (≈ 1380 µM) | 1800 | – | –
C[C@]12C=CC(=O)C=C1CC[C@H]1[C@@H]3C[C@@H](O)[C@](O)(C(=O)CO)[C@@]3(C)C[C@H](O)[C@@]12F [TAC, Triamcinolone, reference compound] | – | – | – | capable of reducing the CAR-induced swelling | –
CC[C@H](C)[C@H](NC(=O)C[C@H](N)[C@H](Cc1ccccc1)NC(=O)[C@@H](NC(=O)[C@H](CC(C)C)NC(=O)CC(C)C)C(C)C)C(=O)N[C@H](C(=O)O)C(C)C [specific DDR2 inhibitor, (S)-2-[(2S,3S)-2-((3S,4S)-3-amino-4-{(S)-3-methyl-2-[(S)-4-methyl-2-(3-methyl-butyrylamino)pentanoylamino]butyrylamino}-5-phenylpentanoylamino)-3-methylpentanoylamino]-3-methylbutyric acid] (Isovaleryl-LV[X1]IV-OH) | – | – | – | – | able to reduce the extent of thermal hyperalgesia as a function of the dose
